In US9775856B2, “C-glycosylpolyphenol antidiabetic agents, effect on glucose tolerance and interaction with beta-amyloid. therapeutic applications of the synthesized agent(s) and of Genista tenera ethyl acetate extracts containing some of those agents” (FACULDADE DE CIENCIAS DA UNIVERSIDADE DE LISBOA, priority 2012, dated 2017):
In brackets after ≈: the same amount, converted by molar mass. One block for each compound: values may come before it.

Legend:
[1] = system: STZ induced diabetic Wistar rats; settings: previous research work; cited from earlier work
[2] = Solubility in PBS; assay type: physicochemical; settings: pure compound in PBS
[3] = 1H-NMR 2D DOSY diffusion coefficient; assay type: physicochemical; settings: DOSY spectrum acquired on the G. tenera extract at 25° C.
Protocol: NMR experiments were recorded on a Varian 400-MHz Mercury instrument. The basic VARIAN sequences were employed for 2D-TOCSY, 2D-NOESY, ^13C-HSQC, DOSY and STD experiments. […] A ^1H spectrum was acquired with a recycle delay of 60 s to achieve the complete relaxation of all the resonances at each scan.

[4] = system: mouse HII4E hepatoma cells; test: In vitro acute toxicity, MTT cell viability assay; assay type: cell-based; settings: 24 h exposure
Protocol: Acute cytotoxicity measurements were performed by the MTT method. The 3-(4,5-dimethylthiazol-2-yl)-2,5-diphenyltetrazolium bromide (MTT) assay was used to quantify metabolically viable cells in all samples. Adherent cells (mouse HII4E hepatoma cells) were seeded onto 96-well plates, allowed to attach for 24 h and exposed to the test compound for the following 24 h. Positive control (hydrogen peroxide), negative control (DMSO) and chloramphenicol were also included. At 48 h of culture, MTT was added to the cells at a final concentration of 0.5 mg/mL, followed by an incubation period of 3 h to allow the formazan crystals to form. After incubation, medium was removed, cells were washed twice to remove traces of medium and un-metabolized MTT, and DMSO (100 μL) was added to each well. Solubilisation of formazan crystals was performed by agitation in a 96-well plate shaker for 20 min at room temperature. Absorbance of each well was quantified at 550 nm, using 620 nm as reference wavelength on a scanning multiwell spectrophotometer (automated microplate reader).

[5] = target: T1, Aβ1-42 oligomers (Homo sapiens, UniProt P05067); test: NMR binding studies (STD-NMR, trNOESY) with beta-amyloid oligomers; settings: Aβ1-42 80 uM, deuterated PBS pH 7.5
T1 construct: lyophilized Aβ1-42 was dissolved in 10 mM NaOD in D2O at a concentration of 160 μM
T1 sequence (P05067 672-713): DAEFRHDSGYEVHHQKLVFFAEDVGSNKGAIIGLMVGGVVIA
Protocol: The selection was made through sample characterization by NMR spectroscopy, as previously described Immediately before use, lyophilized Aβ1-42 was dissolved in 10 mM NaOD in D2O at a concentration of 160 μM, then diluted 1:1 with 10 mM phosphate buffer saline, pH 7.4 containing 100 mM NaCl (PBS) and ethyl acetate extract of G. tenera or one of the tested compounds. […] The pH of each sample was verified with a Microelectrode (Mettler Toledo) for 5 mm NMR tubes and adjusted with NaOD and/or DCl. All pH values were corrected for isotope effect.
NMR experiments were recorded on a Varian 400-MHz Mercury instrument. The basic VARIAN sequences were employed for 2D-TOCSY, 2D-NOESY, ^13C-HSQC, DOSY and STD experiments. For STD, a train of Gaussian-shaped pulses each of 50 ms was employed to saturate selectively the protein envelope; the total saturation time of the protein envelope was adjusted by the number of shaped pulses and was varied between 3 s and 0.3 s. A ^1H spectrum was acquired with a recycle delay of 60 s to achieve the complete relaxation of all the resonances at each scan.

SMILES: O=c1cc(-c2ccc(O)cc2)oc2cc(O)cc(O)c12 [apigenin]
- blood glucose levels [1]: significantly lowered blood glucose levels

SMILES: O=c1c(-c2ccc(O)cc2)coc2cc(O[C@@H]3O[C@H](CO)[C@@H](O)[C@H](O)[C@H]3O)cc(O)c12 [genistein-7-O-glucoside, Genistein 7-O-β-D-glucoside]
- solubility in PBS [2]: insolubility
- diffusion coefficient [3]: 2.65±0.035 10^−10 m^2/s

SMILES: OO [Compound H2O2, hydrogen peroxide]
- IC50 in vitro acute toxicity [4]: 2 µg/mL (≈ 58.8 µM)

SMILES: O=C(N[C@H](CO)[C@H](O)c1ccc([N+](=O)[O-])cc1)C(Cl)Cl [Chloramphenicol, chloramphenicol]
- IC50 [4]: 143 µg/mL (≈ 443 µM)

- binding to Aβ1-42 oligomers (STD-NMR, trNOESY), words [5]: efficient Aβ oligomer ligand
SMILES: O=c1c(-c2ccc(O)cc2)coc2cc(O)cc(O)c12 [genistein]
- blood glucose levels [1]: significantly lowered blood glucose levels

SMILES: COc1cc(-c2cc(=O)c3c(O)cc(O)cc3o2)ccc1O [chrysoeriol]
- blood glucose levels [1]: significantly lowered blood glucose levels

SMILES: C[S+](C)[O-] [DMSO]
- IC50 in vitro acute toxicity [4]: 199 µg/mL (≈ 2550 µM)
